Experimental data as given in PubChem BioAssay AID330 (DTP/NCI, 2004).
Several values for one entry are separate records, joined by “and”; a condition that tells them apart may be missing. Equal values may be shown once. Inconclusive results and toxic doses are left out.

System: P388 leukemia ip, CD2F1 mice, survival T/C
Test: NCI In Vivo Anticancer Drug Screen. Data for tumor model P388 Leukemia (intraperitoneal) in CD2F1 (CDF1) mice
Conditions: endpoint: median survival time, higher = longer survival
Outline: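 Mice carrying the transplanted tumor received test compound or vehicle. Survival was recorded in each group, and the value is the treated-group measurement divided by that of the vehicle-treated control group.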

[1] = dose: 60.0 mg/kg/injection, schedule: Q01DX005 (ip), vehicle: saline with Tween-80
[2] = dose: 120.0 mg/kg/injection, schedule: Q01DX005 (ip), vehicle: saline with Tween-80
[3] = dose: 240.0 mg/kg/injection, schedule: Q01DX005 (ip), vehicle: saline with Tween-80
[4] = dose: 12.5 mg/kg/injection, schedule: Q01DX009 (ip), vehicle: saline with Tween-80
[5] = dose: 25.0 mg/kg/injection, schedule: Q01DX009 (ip), vehicle: saline with Tween-80
[6] = dose: 50.0 mg/kg/injection, schedule: Q01DX009 (ip), vehicle: saline with Tween-80
[7] = dose: 100.0 mg/kg/injection, schedule: Q01DX009 (ip), vehicle: saline with Tween-80
[8] = dose: 25.0 mg/kg/injection, schedule: Q01DX009 (ip), vehicle: saline
[9] = dose: 50.0 mg/kg/injection, schedule: Q01DX009 (ip), vehicle: saline
[10] = dose: 50.0 mg/kg/injection, schedule: Q01DX005 (ip), vehicle: Klucel (hydroxypropylcellulose) (HPC)
[11] = dose: 100.0 mg/kg/injection, schedule: Q01DX005 (ip), vehicle: Klucel (hydroxypropylcellulose) (HPC)
[12] = dose: 200.0 mg/kg/injection, schedule: Q01DX005 (ip), vehicle: Klucel (hydroxypropylcellulose) (HPC)
[13] = dose: 6.25 mg/kg/injection, schedule: Q01DX009 (ip), vehicle: saline with Tween-80
[14] = dose: 100.0 mg/kg/injection, schedule: Q01DX009 (ip), vehicle: saline
[15] = dose: 200.0 mg/kg/injection, schedule: Q01DX009 (ip), vehicle: saline

With [CH3][Ge]([c]1ccccc1)[c]1cccc2ccccc12.[CH3][Sn]([CH3])[c]1ccccc1 the T/C (dose: 100.0 mg/kg/injection, schedule: Q04DX003 (ip), vehicle: saline) was 100 % of control, the T/C (dose: 200.0 mg/kg/injection, schedule: Q04DX003 (ip), vehicle: saline) was 100 % of control and the T/C (dose: 400.0 mg/kg/injection, schedule: Q04DX003 (ip), vehicle: saline) was 101 % of control.
In the case of COC(=O)Cc1[nH]ncc1C(=O)OC, the T/C (dose: 60.0 mg/kg/injection, schedule: Q01DX005 (ip), vehicle: saline) is reported as 106 % of control, the T/C (dose: 120.0 mg/kg/injection, schedule: Q01DX005 (ip), vehicle: saline) is reported as 103 % of control and the T/C (dose: 240.0 mg/kg/injection, schedule: Q01DX005 (ip), vehicle: saline) is reported as 96 % of control.
For CCOC(=O)C(c1ccccc1)c1cccc(C(C(=O)OCC)c2ccccc2)n1 (stereo not drawn), the T/C [1] was 93 % of control, the T/C [2] was 90 % of control and the T/C [3] was 87 % of control.
In the case of c1ccc(C2=NCN3CC23c2ccccc2)cc1 (stereo not drawn), the T/C [4] is reported as 98 % of control, the T/C [5] is reported as 98 % of control and the T/C [6] is reported as 99 % of control. The T/C [7] was 95 % of control.
For NCCc1cc(O)c(O)cc1O, the T/C (dose: 6.25 mg/kg/injection, schedule: Q01DX009 (ip), vehicle: saline) was 101 % of control and 105 % of control, the T/C (dose: 12.5 mg/kg/injection, schedule: Q01DX009 (ip), vehicle: saline) was 107 % of control and 97 % of control and the T/C [8] was 101 % of control and 109 % of control. For the same compound, the T/C [9] was 100 % of control and 111 % of control.
O=[N+]([O-])c1ccc(N2C(c3ccccc3)=N[C@@H](N3CCCCC3)[C@@H]2N2CCCCC2)cc1 was tested, and the T/C [10] was 97 % of control, the T/C [11] was 100 % of control and the T/C [12] was 93 % of control.
With CC(=O)N1c2ccccc2C(O)C1OC(=O)c1cccc(Cl)c1 (stereo not drawn) the T/C [1] was 100 % of control, the T/C [2] was 103 % of control and the T/C [3] was 89 % of control.
In the case of CCc1cc2c(c3c1C(=O)CC3)C(C)(C)CCC2, the T/C (dose: 50.0 mg/kg/injection, schedule: Q01DX005 (ip), vehicle: saline + Tween-80 + alcohol) is reported as 106 % of control, the T/C (dose: 100.0 mg/kg/injection, schedule: Q01DX005 (ip), vehicle: saline + Tween-80 + alcohol) is reported as 92 % of control and the T/C (dose: 200.0 mg/kg/injection, schedule: Q01DX005 (ip), vehicle: saline + Tween-80 + alcohol) is reported as 97 % of control.
With CCOC(=O)CN1CN(CCc2ccccc2)CC(C)(C)C1OCC (stereo not drawn) the T/C [6] was 104 % of control, the T/C [7] was 101 % of control and the T/C (dose: 200.0 mg/kg/injection, schedule: Q01DX009 (ip), vehicle: saline with Tween-80) was 121 % of control. The T/C (dose: 400.0 mg/kg/injection, schedule: Q01DX009 (ip), vehicle: saline with Tween-80) was 112 % of control.
For Cc1ncccc1[N+](=O)[O-], the T/C (dose: 12.5 mg/kg/injection, schedule: Q01DX009 (ip), vehicle: saline + Tween-80 + alcohol) was 100 % of control, the T/C (dose: 25.0 mg/kg/injection, schedule: Q01DX009 (ip), vehicle: saline + Tween-80 + alcohol) was 100 % of control and the T/C (dose: 50.0 mg/kg/injection, schedule: Q01DX009 (ip), vehicle: saline + Tween-80 + alcohol) was 106 % of control and 93 % of control.
For [Cl][Zr][Cl].[c-]1[c-][c-][c-](Cc2ccccc2)[c-]1.[c-]1[c-][c-][c-](Cc2ccccc2)[c-]1, the T/C (dose: 3.12 mg/kg/injection, schedule: Q01DX009 (ip), vehicle: saline with Tween-80) was 104 % of control, the T/C [13] was 89 % of control and the T/C [4] was 86 % of control.
In the case of CC(=O)OC(C)CCCCCCCCCCCCCCC1=C(C)C(=O)OC1=O (stereo not drawn), the T/C (dose: 25.0 mg/kg/injection, schedule: Q01DX005 (ip), vehicle: Klucel (hydroxypropylcellulose) (HPC)) is reported as 99 % of control, the T/C [10] is reported as 106 % of control and the T/C [11] is reported as 108 % of control. For the same compound, the T/C [12] was 105 % of control and the T/C (dose: 400.0 mg/kg/injection, schedule: Q01DX005 (ip), vehicle: Klucel (hydroxypropylcellulose) (HPC)) was 101 % of control.
With COc1cc2c(cc1OC)C(c1ccccc1)ON(C)CC2 (stereo not drawn) the T/C [10] was 100 % of control, the T/C [11] was 99 % of control and the T/C [12] was 104 % of control.
Oc1ccc(O)c(/C=N/N=C/c2cc(O)ccc2O)c1 was tested, and the T/C [10] was 97 % of control, the T/C [11] was 97 % of control and the T/C [12] was 91 % of control.
C[C@H]1C(=O)CCC2[C@]3(C)CC4OC(=O)C5(CC[C@@]6(C)CCC(C)(C)CC6C45C)C3CC[C@@]21C (stereo partly drawn) was tested, and the T/C (dose: 8.25 mg/kg/injection, schedule: Q01DX005 (ip), vehicle: Klucel (hydroxypropylcellulose) (HPC)) was 93 % of control.
In the case of C=C1CN(C(=O)c2ccccc2)C(=S)S1, the T/C (dose: 50.0 mg/kg/injection, schedule: Q01DX005 (ip), vehicle: saline with Tween-80) is reported as 108 % of control, the T/C (dose: 100.0 mg/kg/injection, schedule: Q01DX005 (ip), vehicle: saline with Tween-80) is reported as 108 % of control and the T/C (dose: 200.0 mg/kg/injection, schedule: Q01DX005 (ip), vehicle: saline with Tween-80) is reported as 103 % of control.
COc1cc(C(C)(C)C)cc(OC)c1C(O)(c1c(OC)cc(C(C)(C)C)cc1OC)c1c(OC)cc(C(C)(C)C)cc1OC was tested, and the T/C [5] was 121 % of control and the T/C [7] was 104 % of control.
For Cc1ccc(C)c2c1C(=O)c1ccccc1C2(O)C#Cc1ccccc1 (stereo not drawn), the T/C [10] was 101 % of control, the T/C [11] was 94 % of control and the T/C [12] was 94 % of control.
With S=C1N(c2ccccc2)CCN1c1ccccc1 the T/C (dose: 60.0 mg/kg/injection, schedule: Q01DX005 (ip), vehicle: Klucel (hydroxypropylcellulose) (HPC)) was 101 % of control, the T/C (dose: 120.0 mg/kg/injection, schedule: Q01DX005 (ip), vehicle: Klucel (hydroxypropylcellulose) (HPC)) was 100 % of control and the T/C (dose: 240.0 mg/kg/injection, schedule: Q01DX005 (ip), vehicle: Klucel (hydroxypropylcellulose) (HPC)) was 94 % of control.
For Cc1c(N)c(=O)oc2cc3occc(=O)c3cc12, the T/C (dose: 100.0 mg/kg/injection, schedule: Q01DX001 (ip), vehicle: saline with Tween-80) was 91 % of control, the T/C (dose: 200.0 mg/kg/injection, schedule: Q01DX001 (ip), vehicle: saline with Tween-80) was 89 % of control and the T/C (dose: 400.0 mg/kg/injection, schedule: Q01DX001 (ip), vehicle: saline with Tween-80) was 92 % of control.
With CC(C(=O)O)N1C(=O)C=CC1=O (stereo not drawn) the T/C [4] was 97 % of control and the T/C [5] was 91 % of control.
With COc1cc2c(cc1OC)C(C)N1CCc3cc(OC)c(OC)cc3C1C2 (stereo not drawn) the T/C (dose: 1.56 mg/kg/injection, schedule: Q01DX009 (ip), vehicle: Klucel (hydroxypropylcellulose) (HPC)) was 103 % of control and the T/C (dose: 3.12 mg/kg/injection, schedule: Q01DX009 (ip), vehicle: Klucel (hydroxypropylcellulose) (HPC)) was 98 % of control.
For COCCN[C@@H]1C[C@@](C)(O)Cc2cc3c(c(O)c21)C(=O)c1c(O)cc2c(c1C3=O)O[C@H]1O[C@]2(C)[C@@H](O)[C@H](N(C)C)[C@H]1O, the T/C (dose: 2.5 mg/kg/injection, schedule: Q01DX009 (ip), vehicle: other) was 105 % of control, the T/C (dose: 5.0 mg/kg/injection, schedule: Q01DX009 (ip), vehicle: other) was 105 % of control and the T/C (dose: 7.5 mg/kg/injection, schedule: Q01DX009 (ip), vehicle: other) was 120 % of control. For the same compound, the T/C (dose: 10.0 mg/kg/injection, schedule: Q01DX009 (ip), vehicle: other) was 111 % of control and the T/C (dose: 60.0 mg/kg/injection, schedule: Q01DX009 (ip), vehicle: other) was 154 % of control.
In the case of Oc1ccc(C(O)C2CCCCN2)cc1O (stereo not drawn), the T/C [8] is reported as 99 % of control, the T/C [9] is reported as 108 % of control and the T/C [14] is reported as 103 % of control. For the same compound, the T/C [15] was 108 % of control.
For COc1c(CNC(=O)CCl)cc2[nH]c(C)cc2c1CNC(=O)CCl, the T/C (dose: 100.0 mg/kg/injection, schedule: Q01DX009 (ip), vehicle: Klucel (hydroxypropylcellulose) (HPC)) was 153 % of control and the T/C (dose: 200.0 mg/kg/injection, schedule: Q01DX009 (ip), vehicle: Klucel (hydroxypropylcellulose) (HPC)) was 150 % of control.
With CCCCCCCCCCCC(=O)OCCN(CCOC(=O)CCCCCCCCCCC)C(=O)COC(=O)CCCCCCCCCCC the T/C [13] was 96 % of control, the T/C [4] was 98 % of control and the T/C [5] was 100 % of control. The T/C (dose: 100.0 mg/kg/injection, schedule: Q01DX009 (ip), vehicle: saline + Tween-80 + alcohol) was 111 % of control and the T/C (dose: 200.0 mg/kg/injection, schedule: Q01DX009 (ip), vehicle: saline + Tween-80 + alcohol) was 107 % of control.
For CCCC[Si](O)(CCCC)CCCC, the T/C [9] was 100 % of control, the T/C [14] was 102 % of control and the T/C [15] was 100 % of control.
With CSc1nc2c(SC)ncnc2s1 the T/C (dose: 100.0 mg/kg/injection, schedule: Q01DX001 (ip), vehicle: distilled water + alcohol) was 103 % of control, the T/C (dose: 200.0 mg/kg/injection, schedule: Q01DX001 (ip), vehicle: distilled water + alcohol) was 94 % of control and the T/C (dose: 400.0 mg/kg/injection, schedule: Q01DX001 (ip), vehicle: distilled water + alcohol) was 98 % of control.
